Laboratory results reported in patent US8461125B2, “Compositions and methods to treat asthma” (The Children's Hospital of Philadelphia, priority 2008, dated 2013).

Tests used:
rabbit ASM tissues = experiment: Constrictor and relaxation responsiveness in isolated rabbit ASM tissues (organ bath, isometric tension); details: rabbit ASM tissues exposed 24 hr to IgE immune complexes, pretreatment 10 μM
Source text: The following materials and methods are provided to facilitate practice of the present invention: • Materials: All chemicals were purchased from Sigma-Aldrich unless otherwise indicated. The human ASM cells were obtained from BioWhittaker, Inc. • Animals: Adult New Zealand White rabbits were used in this study, which was approved by the Biosafety and Animal Research Committee of the Joseph Stokes Research Institute at Children's Hospital of Philadelphia. The animals had no signs of respiratory disease for several weeks before the study, and their care and use were in accordance with the “Guide for the Care and Use of Laboratory Animals” prepared by the Institute of Laboratory Animal Resources, National Research Council. • Immunization protocol: Rabbits were actively immunized by an intra-peritoneal injection of 1 ml of an emulsion containing ovalbumin (OVA; 2.5 mg in PBS) mixed in equal part with adjuvant, administered each week for 3 weeks and, thereafter, every alternate week for a one month period. Non-immunized rabbits receiving injections with PBS alone served as controls. Thereafter, the rabbits were challenged by airway administration of a 3% solution of OVA. […]

cAMP PDE4 activity = experiment: cAMP PDE activity in isolated rabbit ASM tissues after pro-asthmatic sensitization; details: FIG. 7B; rabbit ASM tissues sensitized 24 hr with IgE immune complexes
CD23a mRNA = experiment: siRNA-mediated knockdown of CD23a mRNA expression in cultured human ASM cells (RT-PCR); assay type: cell-based; details: 100 nM each siRNA duplex; for CD23a mRNA expression (constitutive): FIG. 2, human ASM cells, control conditions, Oligofectamine-mediated transfection; for CD23a mRNA expression in IL-13-treated ASM cells / CD23a mRNA expression in vehicle-exposed ASM cells: FIG. 3, Oligofectamine transfection; for CD23a mRNA expression in IL-13-treated ASM cells: human ASM cells exposed 12 hr to IL-13 (50 ng/ml); for CD23a mRNA expression in vehicle-exposed ASM cells: human ASM cells exposed 12 hr to vehicle
Source text: The following materials and methods are provided to facilitate practice of the present invention: • Materials: All chemicals were purchased from Sigma-Aldrich unless otherwise indicated. The human ASM cells were obtained from BioWhittaker, Inc. • Animals: Adult New Zealand White rabbits were used in this study, which was approved by the Biosafety and Animal Research Committee of the Joseph Stokes Research Institute at Children's Hospital of Philadelphia. The animals had no signs of respiratory disease for several weeks before the study, and their care and use were in accordance with the “Guide for the Care and Use of Laboratory Animals” prepared by the Institute of Laboratory Animal Resources, National Research Council. • Immunization protocol: Rabbits were actively immunized by an intra-peritoneal injection of 1 ml of an emulsion containing ovalbumin (OVA; 2.5 mg in PBS) mixed in equal part with adjuvant, administered each week for 3 weeks and, thereafter, every alternate week for a one month period. Non-immunized rabbits receiving injections with PBS alone served as controls. Thereafter, the rabbits were challenged by airway administration of a 3% solution of OVA. […] Approximately 40 ml of blood was then drawn via an ear vein from each of the immunized and control rabbits for preparation of asthmatic and non-asthmatic serum samples to be used for subsequent passive sensitization of ASM tissue segments isolated from naïve rabbits, as described below. • siRNA-mediated knockdown of CD23 in cultured ASM cells: Human ASM cells were grown in SmBm media supplemented with 10% FBS (BioWhittaker) and maintained throughout in a humidified incubator containing 5% CO2 in air at 37° C. The experimental protocols involved seeding the cells into 6-well plates and, at ˜40% confluency, the medium was replaced with the reduced serum-containing medium, Opti-MEM (Invitrogen). Separate preparations of cells were then transfected twice during a 24-hr interval with each of four different siRNA duplexes targeted against human CD23, using Oligofectamine (Invitrogen) as the transfection agent. The siRNA preparations were purchased from Applied Biosystems and comprised the following nucleotide sequences:
Additionally, cell preparations were also transfected with either a pool of these CD23-directed siRNA duplexes, a non-targeted negative control (scrambled) siRNA duplex, or a negative control duplex labeled with the […], Cy™3, to visualize siRNA transfection efficiency. The siRNAs were applied to each well at a final concentration of 100 nM for each siRNA duplex. After 3 days, the cells were exposed for 12 hr to either vehicle alone or the pro-asthmatic cytokine, IL-13 (50 ng/ml), which is known to upregulate CD23 expression in human monocytes. The cells were subsequently examined for induced changes in mRNA expression of CD23a. • Detection of CD23 mRNA transcripts: Total RNA was extracted from the cultured ASM cells using the TRIzol method (Invitrogen), and cDNAs were isolated by RT-PCR using the SuperScript First Strand Synthesis System kit from Invitrogen, with the following oligonucleotide primer sets (Integrated DNA Technologies): for CD23a, (SEQ ID NO: 11) 5′-[…]-3′ (forward) and (SEQ ID NO: 12) 5′-[…]-3′ (reverse); and for β-actin, (SEQ ID NO: 13) 5′-[…]-3′ (forward) and (SEQ ID NO: 14) 5′-[…]-3′ (reverse). The reaction volume was 20 μl and cycling conditions used were 35 cycles of 30 sec denaturation at 95° C., followed by 30 sec annealing at 60° C. and elongation at 72° C. for 30 sec. Ex-Tag (Takara Biotechnology) was used as DNA polymerase. • Pharmacodynamic studies of constrictor and relaxation responsiveness in rabbit ASM tissues: Following initial sedation and subsequent general anesthesia with intramuscular injections of xylazine (10 mg/kg) and ketamine (50 mg/kg), respectively, rabbits were sacrificed with an intravenously administered overdose of sodium pentobarbital (100 mg/kg). […]

Molecule	Induced pro-asthmatic change in constrictor responsiveness to ACh (rabbit ASM tissues; FIG. 5A)	Induced pro-asthmatic change in relaxation responsiveness to isoproterenol (rabbit ASM tissues; FIG. 5B)	Induced upregulation of cAMP PDE4 activity (cAMP PDE4 activity)	CD23a mRNA expression (constitutive) (CD23a mRNA)	CD23a mRNA expression in IL-13-treated ASM cells (CD23a mRNA)	CD23a mRNA expression in vehicle-exposed ASM cells (CD23a mRNA)	CD23a mRNA expression (constitutive) (CD23a mRNA; listed as 111060)	CD23a mRNA expression (constitutive) (CD23a mRNA; listed as 106645)
COc1ccc(C2CNC(=O)C2)cc1OC1CCCC1 (centres unmarked) [rolipram]	prevented	prevented	inhibitory effect					
#111062: siRNA duplex against human CD23 (Applied Biosystems): sense 5′-CGAAGCUUCAGAUUUGCUGtt-3′, antisense 5′-CAGCAAAUCUGAAGCUUCGtt-3′ (sense CGAAGCUUCAGAUUUGCUGTT; antisense CAGCAAAUCUGAAGCUUCGTT; chemistry not given here)				no effect	no effect	no effect		
#111060: siRNA duplex against human CD23 (Applied Biosystems): sense 5′-GGAAUUGAACGAGAGGAACtt-3′, antisense 5′-GUUCCUCUCGUUCAAUUCCtg-3′ (sense GGAAUUGAACGAGAGGAACTT; antisense GUUCCUCUCGUUCAAUUCCTG; chemistry not given here)				distinctly inhibited	markedly inhibited	markedly inhibited	marked inhibition	
#106644: siRNA duplex against human CD23 (Applied Biosystems): sense 5′-GGAGGUGACAAAGCUAAGGtt-3′, antisense 5′-CCUUAGCUUUGUCACCUCCtc-3′ (sense GGAGGUGACAAAGCUAAGGTT; antisense CCUUAGCUUUGUCACCUCCTC; chemistry not given here)				no effect	no effect	no effect		
#106645: siRNA duplex against human CD23 (Applied Biosystems): sense 5′-GGUGACAAAGCUAAGGAUGtt-3′, antisense 5′-CAUCCUUAGCUUUGUCACCtc-3′ (sense GGUGACAAAGCUAAGGAUGTT; antisense CAUCCUUAGCUUUGUCACCTC; chemistry not given here)				distinctly inhibited	markedly inhibited	markedly inhibited		marked inhibition
